# Results: patent publication US20260306503A1, “(S)-2-HYDROXY-6-((4-(2-(2-HYDROXYETHYL)NICOTINOYL)MORPHOLIN-3-YL)METHOXY)BENZALDEHYD FOR USE IN THE TREATMENT OF SICKLE CELL DISEASE” (Global Blood Therapeutics, Inc., priority 2023, published 2026)
# Molecular target: T1, hemoglobin (Homo sapiens, UniProt P69905)
# T1 construct: whole blood ex vivo
# Assay: Hb occupancy calculated from preliminary PK analysis of whole blood samples
# Format: in vivo
# Conditions: Patient A, 300 mg QD 14 days then 200 mg QD
# Experimental: In some embodiments, the therapeutically effective amount is determined by measuring the percent of hemoglobin occupied by the compound, i.e., the percent Hb occupancy. The percent Hb occupancy is a measure of target engagement defined as the percentage of hemoglobin bound by a compound (e.g., Compound I) calculated as the molar concentration of the compound (e.g., Compound I) in RBCs divided by the molar concentration of hemoglobin in RBCs (the mean corpuscular hemoglobin concentration calculated from the hematology panel). The values for concentration of a compound (e.g., Compound I) in RBCs is calculated from the concentrations in whole blood and plasma, and the hematocrit.
# In some embodiments, the percent hemoglobin occupancy may be calculated as described herein. In some embodiments, percent hemoglobin occupancy is the molar ratio of Compound I concentration to the Hb concentration in red blood cells.
# Some newly enrolled participants in Part A will receive a loading dose regimen of 300 mg of Compound I once daily over the first 14 days. Participants will then receive 200 mg once daily maintenance doses through Week 12.
# Based on preliminary pharmacokinetic (PK) analysis of whole blood samples taken from Patient A at day 15 and day 29, Hb occupancy values of 62% and 53%, respectively, were calculated.
# T1 sequence (P69905 whole entry): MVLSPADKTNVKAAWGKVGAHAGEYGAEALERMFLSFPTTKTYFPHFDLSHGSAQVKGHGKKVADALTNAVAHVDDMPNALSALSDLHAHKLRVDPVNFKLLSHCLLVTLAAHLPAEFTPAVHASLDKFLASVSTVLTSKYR
# T1 sequence (P68871 with tags, fused parts or gaps E7V partner): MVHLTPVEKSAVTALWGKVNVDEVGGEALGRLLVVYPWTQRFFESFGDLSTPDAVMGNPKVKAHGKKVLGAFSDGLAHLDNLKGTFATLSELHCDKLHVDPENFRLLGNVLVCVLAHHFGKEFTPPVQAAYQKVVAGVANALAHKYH
structure (smiles),measurement,setting,value
"O=Cc1c(O)cccc1OC[C@@H]1COCCN1C(=O)c1cccnc1CCO [Compound I, (S)-2-hydroxy-6-((4-(2-(2-hydroxyethyl)nicotinoyl)morpholin-3-yl)methoxy)benzaldehyde]",Hb occupancy,"day 15, whole blood, 21600 min",62%
same,Hb occupancy,"day 29, whole blood, 41760 min",53%
